Each structure is given as a SMILES string. Values joined by “and” are separate entries in the source; they are usually repeats but may differ in a detail not shown here. Equal values may be shown once. Read-outs that look alike come from different tables or passages of the source.

Experiment [1] addresses VIM-1 (Pseudomonas aeruginosa, UniProt A0A0F7KYQ8). As to the kind of experiment: VIM-1 spectrophotometric enzyme inhibition assay (nitrocefin hydrolysis). It is filed as biochemical. Also noted: dose or concentration left out as unconfirmed. The note with it: 5 min, read-out: % Inib vs VIM-1. The method, then:
(§1) The synthesized compounds were all tested for their inhibitory activity against targeted MBLs using a spectrophotometric assay (Table S2). After an initial validation at fixed concentration, compounds yielding > 0% inhibition were profiled in dose–response experiments to determine their IC50. The IC50 values were determined by measuring the rate of hydrolysis of the reporter substrate meropenem MEM ([S] = 57 μM; Km = 63.4 μM) in the presence of five different inhibitor concentrations. Assays were run after a 5 min incubation. The Ki was either calculated by the Cheng–Prusoff equation assuming competitive inhibition, or, for selected inhibitors, fully determined with Dixon plots (Figure S1).
(§2) The percentage of inhibition (%Inh) of 1,2,4-triazole derivatives was determined against a panel of subclass B1 MBLs (NDM-1, VIM-1, VIM-2, and IMP-1). Each compound was initially tested at a fixed concentration for inhibitory activity vs. the targeted enzymes. For the best active inhibitors, half-maximal inhibitory concentration (IC50) and Ki values were determined. Reactions were monitored using a Jasco V-730 spectrophotometer ( JASCO EUROPE S.R.L. Via Luigi Cadorna 1 23894 Cremella (LC) Italy) using nitrocefin or meropenem as reported substrates. Compounds were dissolved in dimethyl sulfoxide (DMSO) and stored at −20 °C. For VIM-1, VIM-2, and IMP-1MBLs, assays were conducted in 20 mM of HEPES, 100 mM of NaCl, and ZnSO4 at 10 µM at pH 7.4 at 25 °C with 0.01% v/v Triton X-100 to avoid compound aggregation and promiscuous inhibition. For NDM-1, assays were conducted in 20 mM of TRIS HCl + 150 mM of NaCl at pH 7.5 at 25°C with 0.01% v/v Triton X-100 to avoid aggregation.
Table S2. The inhibitory activity of 4-amino-4H-1,2,4-triazole-3-thiol derivatives discussed here. […]
Tests were conducted at 25° C by following the absorbance variation observed upon reporter substrate (Meropenem 57 μM for NDM-1, 17 μM for VIM-2) or Nitrocefin (23 μM for VIM-1). The percentage of inhibition is reported except when ≤ 15% and in this case is indicated by NI “no inhibition”. Compounds concentration was […] vs NDM-1. Assays were run after a 5-minutes incubation. […]

In experiment [2] the target is T1, NDM-1 (Klebsiella pneumoniae, UniProt C7C422).
T1 construct: made in house; host or cells: E. coli BL21(DE3)
As to the kind of experiment: NDM-1 spectrophotometric enzyme inhibition assay (meropenem hydrolysis). Type of experiment: biochemical. Also noted: inhibition: dose or concentration left out as unconfirmed. The following applies: for inhibition: 5 min, read-out: % Inib vs NDM-1; for IC50: substrate MEM 57 μM, 5 min incubation, triplicate, NI: no inhibition (<30% inhibition at 100 µM); for IC50 / Ki: 25 °C; for Ki: substrate MEM; for NDM-1 inhibitory activity: at 100 μM. As for the experimental part: as §1, §2
(§3) For all targeted proteins, the reaction was typically initiated by adding the substrate to the reaction buffer last, after a 5 min preincubation. After brief shaking, the reading was performed for a total kinetic time of 240 s at 25 °C. The IC50 values were determined by measuring the rate of hydrolysis of the reporter substrate in the presence of five different inhibitor concentrations. The binding affinity Ki was generally estimated from the determined IC50 using the Cheng–Prusoff equation as per competitive inhibition. For the best inhibitors, the mechanism of inhibition and Ki were determined with a Dixon plot (CP 22, CP 35, CP 56, and CP 57 against NDM-1; compound CP 57 against VIM-2).

In experiment [3] the test system is six MBL-producing multidrug-resistant clinical isolates. As to the kind of experiment: Growth inhibition by the compound tested alone. Type of experiment: cell-based. The following applies: 32 μg/mL, without MEM. The method, then:
(§4) The potential synergistic activity of the three best inhibitors (CP 35, CP 56, and CP 57) was tested using the broth microdilution method on six MBL-producing multidrug-resistant clinical isolates. […] Although apparently modest, this increase in synergistic activity represents a significant improvement over the previous generation of triazole-thione β-lactamase inhibitors previous described by our group.

Experiment [4] concerns K. pneumoniae VA-416/02 (VIM-4). As to the kind of experiment: Synergy with meropenem, broth microdilution MIC. It is filed as cell-based. As for the experimental part:
as §4
Background: Broth dilution looks for growth in wells or tubes with falling amounts of substance.

Experiment [5] deals with P. aeruginosa VA-182/00 (VIM-2). As to the kind of experiment: Synergy with meropenem, broth microdilution MIC. It is filed as cell-based, Pseudomonas aeruginosa. As for the experimental part:
as §4

The target in experiment [6] is VIM-2 (Escherichia coli, UniProt Q5U7L7). As to the kind of experiment: VIM-2 spectrophotometric enzyme inhibition assay (meropenem hydrolysis). It is filed as biochemical. The following applies: 25 °C; for % Inib vs VIM-2: meropenem 17 μM, 5 min incubation, NI = no inhibition (≤15%). As for the experimental part: The synthesized compounds were all tested for their inhibitory activity against targeted MBLs using a spectrophotometric assay (Table S2). After an initial validation at fixed concentration, compounds yielding > 0% inhibition were profiled in dose–response experiments to determine their IC50. […] Assays were run after a 5 min incubation. The Ki was either calculated by the Cheng–Prusoff equation assuming competitive inhibition, or, for selected inhibitors, fully determined with Dixon plots (Figure S1).
as §2, §3

The test system of experiment [7] is K. pneumoniae SI-518 (NDM-1). As to the kind of experiment: Synergy with meropenem, broth microdilution MIC. It is filed as cell-based. The method, then:
as §4

Experiment [8] has as its system K. pneumoniae SI-1072 (NDM-1). As to the kind of experiment: Synergy with meropenem, broth microdilution MIC. It is filed as cell-based. The method, then: as §4
Experiment [9] deals with MBLs. Also on record: method as in PMID 36450011, PMID 31871094, PMID 32482673. The following applies: cited from earlier work.
Where [10] appears, read: Ki determined with Dixon plots, read-out: NDM-1 Ki (Dixon plots).
[11] abbreviates: compound 32 μg/mL, VIM-4-producing K. pneumoniae.
[12] abbreviates: Ki calculated from IC50 as per competitive inhibition (Cheng–Prusoff), read-out: NDM-1 Ki (calculated from IC50).
Where [13] appears, read: compound 32 μg/mL, NDM-1-producing K. pneumoniae (strain not given).
The mark [14] stands for this setting: Klebsiella pneumoniae, MEM alone (Cpd: None).

T1 sequence (C7C422 29-270, looked up, species assumed): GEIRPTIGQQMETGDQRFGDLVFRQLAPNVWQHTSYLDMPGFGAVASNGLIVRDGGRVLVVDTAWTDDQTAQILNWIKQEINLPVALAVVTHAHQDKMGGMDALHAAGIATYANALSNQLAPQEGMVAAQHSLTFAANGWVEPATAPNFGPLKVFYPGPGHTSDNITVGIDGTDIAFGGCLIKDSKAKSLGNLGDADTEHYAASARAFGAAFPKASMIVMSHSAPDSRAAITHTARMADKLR

Turning to `FC(F)(F)c1ccccc1/C=N/n1cnnc1S` [CP 17, (E)-4-((2-(Trifluoromethyl)benzylidene)amino)-4H-1,2,4-triazole-3-thiol], the inhibition in [1] was 46%. Besides, in experiment [2], the inhibition came out at 51%; the IC50 was > 100 µM and 226 µM.
Regarding `Sc1nncn1/N=C/c1cccc2ccccc12` [CP 18, (E)-4-((Naphthalen-1-ylmethylene)amino)-4H-1,2,4-triazole-3-thiol], the inhibition in [1] worked out at 33%. Further, in [2], the inhibition was above 100% and the IC50 turned out to be 52 ± 7.5 µM.
On to `COc1ccc(/C=N/n2cnnc2S)cc1` [CP 19, (E)-4-((4-Methoxybenzylidene)amino)-4H-1,2,4-triazole-3-thiol], for which the inhibition in [1] was 15%; in experiment [2], 24%.
Turning to `COc1cccc(/C=N/n2cnnc2S)c1` [CP 20, (E)-4-((3-Methoxybenzylidene)amino)-4H-1,2,4-triazole-3-thiol], the inhibition in experiment [1] was 14%; in experiment [2] it was 40%.
For `COc1ccccc1/C=N/n1cnnc1S` [CP 21, (E)-4-((2-Methoxybenzylidene)amino)-4H-1,2,4-triazole-3-thiol], the inhibition in experiment [1] was found to be 32%; in experiment [2], 38%.
As to `Sc1nncn1/N=C/c1cccc(Br)c1` [CP 22, (E)-4-((3-Bromobenzylidene)amino)-4H-1,2,4-triazole-3-thiol], the inhibition in [1] was 46%; in experiment [2], 68%. Besides, the IC50 in [2] worked out at 88.5 ± 3.7 µM. For the same molecule, in [2] (setting [10]), the inhibition constant (Ki) stood at 42.7 µM.
Turning to `Sc1nncn1/N=C/c1ccccc1Br` [CP 23, (E)-4-((2-Bromobenzylidene)amino)-4H-1,2,4-triazole-3-thiol], in experiment [2], the inhibition was determined as 67% and the IC50 was determined as 83 ± 3.3 µM.
Turning to `Sc1nncn1/N=C/c1ccc(Br)cc1` [CP 24, (E)-4-((4-Bromobenzylidene)amino)-4H-1,2,4-triazole-3-thiol], the inhibition in experiment [1] stood at 28%. Besides, in [2], the inhibition stood at 64% and the IC50 was 83.1 ± 2.7 µM.
Regarding `O=C(O)c1ccccc1/C=N/n1cnnc1S` [CP 29, (E)-2-(((3-Mercapto-4H-1,2,4-triazol-4-yl)imino)methyl)benzoic acid], in experiment [1], the inhibition turned out to be 17%. Further, in [2], the NDM-1 inhibitory activity entry is “no inhibitory activity” and the IC50 was above 100 µM.
In the case of `O=C(O)c1ccc(/C=N/n2cnnc2S)cc1` [CP 30, (E)-4-(((3-Mercapto-4H-1,2,4-triazol-4-yl)imino)methyl)benzoic acid], the inhibition in [1] stood at 18%. Further, in [2], the NDM-1 inhibitory activity result was “no inhibitory activity” and the IC50 is above 100 µM.
For the molecule `N#Cc1ccccc1/C=N/n1cnnc1S` [CP 31, (E)-2-(((3-Mercapto-4H-1,2,4-triazol-4-yl)imino)methyl)benzonitrile], in [2], the inhibition came out at 10%.
Turning to `Sc1nncn1/N=C/c1ccccn1` [CP 32, (E)-4-((Pyridin-2-ylmethylene)amino)-4H-1,2,4-triazole-3-thiol], the inhibition in experiment [1] was 17%; in [2] it was 20%.
Turning to `FC(F)(F)c1nnc(S)n1/N=C/c1cccc(Br)c1` [CP 35, (E)-4-((3-Bromobenzylidene)amino)-5-(trifluoromethyl)-4H-1,2,4-triazole-3-thiol], the “growth inhibition, compound tested alone” value in experiment [3] is given as “no growth inhibition”. Besides, the “synergistic activity with MEM” value in experiment [4] (setting [11]) is listed as “no synergistic activity at all”; in [5] (compound 32 μg/mL, VIM-2 P. aeruginosa), “no synergistic activity at all”. Further, the inhibitory constant (Ki) in experiment [2] (setting [10]) came to 25.8 µM. Also, in experiment [6], the “% Inib vs VIM-2” value amounted to 53%.
On to `O=C(O)c1ccccc1/C=N/n1c(S)nnc1C(F)(F)F` [CP 45, (E)-2-(((3-Mercapto-5-(trifluoromethyl)-4H-1,2,4-triazol-4-yl)imino)methyl)benzoic acid], for which the Ki in [2] (setting [12]) was 83 µM.
Take `FC(F)(F)c1nnc(S)n1/N=C/c1nn[nH]n1` [CP 46, (E)-4-(((2H-Tetrazol-5-yl)methylene)amino)-5-(trifluoromethyl)-4H-1,2,4-triazole-3-thiol]: the “% Inib vs VIM-2” value in experiment [6] is on record as 42%.
In the case of `FC(F)(F)c1ccc(-c2nnc(S)n2/N=C/c2cccc(Br)c2)cc1` [CP 55, (E)-4-((3-Bromobenzylidene)amino)-5-(4-(trifluoromethyl)phenyl)-4H-1,2,4-triazole-3-thiol], the Ki in [2] (setting [12]) was 220 µM.
For the molecule `O=C(O)c1cccc(/C=N/n2c(S)nnc2-c2ccc(C(F)(F)F)cc2)c1` [CP 56, (E)-3-(((3-Mercapto-5-(4-(trifluoromethyl)phenyl)-4H-1,2,4-triazol-4-yl)imino)methyl)benzoic acid], the “growth inhibition, compound tested alone” value in experiment [3] is “no growth inhibition”. Moreover, the “synergistic activity with MEM” value in [4] (setting [11]) is on record as “detectable synergistic effect”. In addition, the “% Inib vs VIM-2” value in experiment [6] came out at 42%.
With `O=C(O)c1ccccc1/C=N/n1c(S)nnc1-c1ccc(C(F)(F)F)cc1` [CP 57, (E)-2-(((3-Mercapto-5-(4-(trifluoromethyl)phenyl)-4H-1,2,4-triazol-4-yl)imino)methyl)benzoic acid], the “growth inhibition, compound tested alone” value in experiment [3] was “no growth inhibition”. Also, the “reduction of meropenem MIC” value in [4] (setting [11]), in experiment [7] (setting [13]) and in experiment [8] (setting [13]) was “four-fold” in each case. Further, the “synergistic activity with MEM” value in experiment [4] (setting [11]) is “detectable synergistic effect”. Further, the inhibitory constant (Ki) was 5.59 µM and 5.6 µM in experiment [2] (setting [10]); 4.14 µM and 4.1 µM in [6] (substrate MEM, Ki determined with Dixon plot, read-out: VIM-2 Ki (Dixon plots)). For the same molecule, the “% Inib vs VIM-2” value in experiment [6] is listed as above 100%.
Consider `FC(F)(F)c1ccc(-c2nnc(S)n2/N=C/c2nn[nH]n2)cc1` [CP 58, (E)-4-(((2H-Tetrazol-5-yl)methylene)amino)-5-(4-(trifluoromethyl)phenyl)-4H-1,2,4-triazole-3-thiol], for which the “% Inib vs VIM-2” value in [6] is 53%.
With `C[C@@H](O)[C@H]1C(=O)N2C(C(=O)O)=C(S[C@@H]3CN[C@H](C(=O)N(C)C)C3)[C@H](C)[C@H]12` [MEM, meropenem, reference compound], the minimal inhibitory concentration (MIC) in experiment [4] (setting [14]) was found to be 16 µg/mL; in experiment [7] (setting [14]), 128 µg/mL; in [8] (setting [14]) it was 128 µg/mL; in experiment [5] (Pseudomonas aeruginosa, MEM alone (Cpd: None)) it was 256 µg/mL.
As to `O=C(O)c1c(F)ccc2c1OB(O)[C@@H]1C[C@H]21` [QPX7728], the Ki values result in experiment [9] is “low nanomolar range”.
`NCCN[C@H]1CC[C@H](CC(=O)N[C@H]2Cc3cccc(C(=O)O)c3OB2O)CC1` [taniborbactam]: in [9], the Ki values entry was “low nanomolar range”.

A word on the IC50: it is the concentration at which inhibition is half-maximal. In general, Ki refers to a dissociation constant, usually derived from enzyme kinetics or from competition with a known ligand. In general, MIC refers to the least concentration at which growth counts as inhibited.

(Values after paper PMC10747250, “Structure-Based Optimization of 1,2,4-Triazole-3-Thione Derivatives: Improving Inhibition of NDM-/VIM-Type Metallo-β-Lactamases and Synergistic Activity on Resistant Bacteria” (Pharmaceuticals, 2023).)
